Patent US6613747B2, “6-O-carbamoyl ketolide antibacterials” (Ortho-McNeil Pharmaceutical, Inc., priority 2000, dated 2003)
In brackets after ≈: the same amount, converted by molar mass. Where two headings read alike, the source gives them in different places.

Tests used:
Test in all cases: MIC, microdilution broth method (NCCLS)
Assay type in all cases: cell-based
[1] = test system: E. coli OC2605; details: A: E. coli OC2605, 35° C., 16-20 hours
Method in brief: (§1)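 Following the NCCLS microdilution standard, organisms from actively growing broth cultures are added at roughly 5×10^4 CFU/well to two-fold drug series in cation-adjusted Mueller-Hinton broth. Trays incubate 16-20 hours at 35° C. before reading.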

[2] = test system: E. faecalis ATCC29212; details: C: E. faecalis ATCC29212, 35° C., 16-20 hours
Method in brief: as §1

[3] = test system: H. influenzae ATCC49247; details: E: H. influenzae ATCC49247, 35° C., 16-20 hours
Method in brief: as §1

[4] = test system: S. aureus ATCC29213; details: B: S. aureus ATCC29213, 35° C., 16-20 hours
Method in brief: as §1

[5] = test system: S. pneumoniae ATCC49619; details: D: S. pneumoniae ATCC49619, 35° C., 16-20 hours
Method in brief: as §1

| Structure (SMILES) | MIC [1] [µg/mL] | MIC [2] [µg/mL] | MIC [3] [µg/mL] | MIC [4] [µg/mL] | MIC [5] | MIC ([1]; Escherichia coli, read-out: MIC) [µg/mL] | MIC ([2]; Enterococcus faecalis, read-out: MIC) [µg/mL] | MIC ([3]; Haemophilus influenzae, read-out: MIC) [µg/mL] | MIC ([4]; Staphylococcus aureus, read-out: MIC) [µg/mL] | MIC ([5]; Streptococcus pneumoniae, read-out: MIC) [µg/mL] |
| --- | --- | --- | --- | --- | --- | --- | --- | --- | --- | --- |
| CC[C@H]1OC(=O)[C@H](C)C(=O)[C@H](C)[C@@H](O[C@@H]2O[C@H](C)C[C@H](N(C)C)[C@H]2O)[C@](C)(OC(=O)NC/C=C/C=C/c2ccc(-n3cccn3)cc2)C[C@@H](C)C(=O)[C@H](C)[C@H]2NC(=O)O[C@@]21C [Compound 60] | >16 | 0.5 (≈ 0.588 µM) | 8 (≈ 9.41 µM) | 1 (≈ 1.18 µM) | 0.25 µg/mL (≈ 0.294 µM) |  |  |  |  |  |
| CC[C@H]1OC(=O)[C@H](C)C(=O)[C@H](C)[C@@H](O[C@@H]2O[C@H](C)C[C@H](N(C)C)[C@H]2O)[C@](C)(OC(=O)NCc2cnn(-c3ccccc3)c2)C[C@@H](C)C(=O)[C@H](C)[C@H]2NC(=O)O[C@@]21C [Compound 61] | 16 (≈ 20.1 µM) | 0.06 (≈ 0.0752 µM) | 2 (≈ 2.51 µM) | 0.5 (≈ 0.627 µM) | 0.03 µg/mL (≈ 0.0376 µM) |  |  |  |  |  |
| CC[C@H]1OC(=O)[C@H](C)C(=O)[C@H](C)[C@@H](O[C@@H]2O[C@H](C)C[C@H](N(C)C)[C@H]2O)[C@](C)(OC(=O)NC/C=C/c2cnn(-c3ccccc3)c2)C[C@@H](C)C(=O)[C@H](C)[C@H]2NC(=O)O[C@@]21C [Compound 62] | >16 | 0.12 (≈ 0.146 µM) | 4 (≈ 4.85 µM) | 0.25 (≈ 0.303 µM) | 0.06 µg/mL (≈ 0.0728 µM) |  |  |  |  |  |
| CC[C@H]1OC(=O)[C@H](C)C(=O)[C@H](C)[C@@H](O[C@@H]2O[C@H](C)C[C@H](N(C)C)[C@H]2O)[C@](C)(OC(=O)NCc2ccc(-n3cc(C)cn3)cc2)C[C@@H](C)C(=O)[C@H](C)[C@H]2NC(=O)O[C@@]21C [Compound 64] | >16 | 0.12 (≈ 0.148 µM) | 4 (≈ 4.93 µM) | 1 (≈ 1.23 µM) | 0.03 µg/mL (≈ 0.0369 µM) |  |  |  |  |  |
| CC[C@H]1OC(=O)[C@H](C)C(=O)[C@H](C)[C@@H](O[C@@H]2O[C@H](C)C[C@H](N(C)C)[C@H]2O)[C@](C)(OC(=O)NCc2cccc(-c3ncccn3)c2)C[C@@H](C)C(=O)[C@H](C)[C@H]2NC(=O)O[C@@]21C [Compound 65] | >16 | 0.25 (≈ 0.309 µM) | 8 (≈ 9.88 µM) | 2 (≈ 2.47 µM) | 0.06 µg/mL (≈ 0.0741 µM) |  |  |  |  |  |
| CC[C@H]1OC(=O)[C@H](C)C(=O)[C@H](C)[C@@H](O[C@@H]2O[C@H](C)C[C@H](N(C)C)[C@H]2O)[C@](C)(OC(=O)NC/C=C/c2cccc(-c3ncccn3)c2)C[C@@H](C)C(=O)[C@H](C)[C@H]2NC(=O)O[C@@]21C [Compound 66] | >16 | 0.12 (≈ 0.144 µM) | 4 (≈ 4.78 µM) | 0.5 (≈ 0.598 µM) | 0.06 µg/mL (≈ 0.0718 µM) |  |  |  |  |  |
| CC[C@H]1OC(=O)[C@H](C)C(=O)[C@H](C)[C@@H](O[C@@H]2O[C@H](C)C[C@H](N(C)C)[C@H]2O)[C@](C)(OC(=O)NC/C=C/c2ccc(-n3cc(C)cn3)cc2)C[C@@H](C)C(=O)[C@H](C)[C@H]2NC(=O)O[C@@]21C [Compound 67] | >16 | 0.25 (≈ 0.298 µM) | 4 (≈ 4.77 µM) | 0.25 (≈ 0.298 µM) | 0.06 µg/mL (≈ 0.0716 µM) |  |  |  |  |  |
| CC[C@H]1OC(=O)[C@H](C)C(=O)[C@H](C)[C@@H](O[C@@H]2O[C@H](C)C[C@H](N(C)C)[C@H]2O)[C@](C)(OC(=O)NC/C=C/c2ccc(Br)nc2)C[C@@H](C)C(=O)[C@H](C)[C@H]2NC(=O)O[C@@]21C [Compound 72] | 8 (≈ 9.55 µM) | 0.06 (≈ 0.0716 µM) | 2 (≈ 2.39 µM) | 0.25 (≈ 0.298 µM) | ≦0.015 μg/mL |  |  |  |  |  |
| CC[C@H]1OC(=O)[C@H](C)C(=O)[C@H](C)[C@@H](O[C@@H]2O[C@H](C)C[C@H](N(C)C)[C@H]2O)[C@](C)(OC(=O)NCc2ccc(-n3cccn3)cc2F)C[C@@H](C)C(=O)[C@H](C)[C@H]2NC(=O)O[C@@]21C [Compound 73] | 16 (≈ 19.6 µM) | 0.06 (≈ 0.0735 µM) | 2 (≈ 2.45 µM) | 0.5 (≈ 0.613 µM) | 0.03 µg/mL (≈ 0.0368 µM) |  |  |  |  |  |
| CC[C@H]1OC(=O)[C@H](C)C(=O)[C@H](C)[C@@H](O[C@@H]2O[C@H](C)C[C@H](N(C)C)[C@H]2O)[C@](C)(OC(=O)NC/C=C/c2ccc(-n3cccn3)cc2F)C[C@@H](C)C(=O)[C@H](C)[C@H]2NC(=O)O[C@@]21C [Compound 74] | 16 (≈ 19 µM) | 0.06 (≈ 0.0713 µM) | 1 (≈ 1.19 µM) | 0.06 (≈ 0.0713 µM) | ≦0.015 μg/mL |  |  |  |  |  |
| CCC1OC(=O)C(C)(F)C(=O)C(C)C(OC2OC(C)CC(N(C)C)C2O)C(C)(OC(=O)NCC=Cc2ccc(-c3ncccn3)cc2)CC(C)C(=O)C(C)C2NC(=O)OC12C (stereo not shown) [Compound 75] | >16 | 0.12 (≈ 0.141 µM) | 4 (≈ 4.68 µM) | 0.25 (≈ 0.293 µM) | 0.03 µg/mL (≈ 0.0351 µM) |  |  |  |  |  |
| CC[C@H]1OC(=O)[C@H](C)C(=O)[C@H](C)[C@@H](O[C@@H]2O[C@H](C)C[C@H](N(C)C)[C@H]2O)[C@](C)(OC(=O)NCc2ccc(-c3cnccn3)cc2)C[C@@H](C)C(=O)[C@H](C)[C@H]2NC(=O)O[C@@]21C [Compound 76] | 16 (≈ 19.8 µM) | 0.06 (≈ 0.0741 µM) | 2 (≈ 2.47 µM) | 0.25 (≈ 0.309 µM) | ≦0.015 μg/mL |  |  |  |  |  |
| CC[C@H]1OC(=O)[C@H](C)C(=O)[C@H](C)[C@@H](O[C@@H]2O[C@H](C)C[C@H](N(C)C)[C@H]2O)[C@](C)(OC(=O)NCc2ccc(-c3ccncn3)cc2)C[C@@H](C)C(=O)[C@H](C)[C@H]2NC(=O)O[C@@]21C [Compound 79] | 8 (≈ 9.88 µM) | 0.06 (≈ 0.0741 µM) | 2 (≈ 2.47 µM) | 0.25 (≈ 0.309 µM) | 0.03 µg/mL (≈ 0.037 µM) |  |  |  |  |  |
| CC[C@H]1OC(=O)[C@H](C)C(=O)[C@H](C)[C@@H](O[C@@H]2O[C@H](C)C[C@H](N(C)C)[C@H]2O)[C@](C)(OC(=O)NCCCc2ccc(-c3ncccn3)cc2)C[C@@H](C)C(=O)[C@H](C)[C@H]2NC(=O)O[C@@]21C [Compound 80, Carbamic acid, [3-[4-(2-2pyrimidinyl)phenyl]propyl]-, (3aS,4R,7R,9R,10R,11R,13R,15R,15aR)-4-ethyltetradecahydro-3a,7,9,11,13,15-hexamethyl-2,6,8,14-tetraoxo-10-[[3,4,6-trideoxy-3-(dimethylamino)-b-β-xylo-hexopyranosyl]oxy]-2H-oxacyclotetradecino[4,3-d]oxazol-11-yl ester] | >16 | 0.06 (≈ 0.0716 µM) | 4 (≈ 4.77 µM) | 0.12 (≈ 0.143 µM) | 0.03 µg/mL (≈ 0.0358 µM) |  |  |  |  |  |

Results, then the compound that gave them:

| MIC [1] [µg/mL] | MIC [2] [µg/mL] | MIC [3] [µg/mL] | MIC [4] [µg/mL] | MIC [5] | MIC ([1]; Escherichia coli, read-out: MIC) [µg/mL] | MIC ([2]; Enterococcus faecalis, read-out: MIC) [µg/mL] | MIC ([3]; Haemophilus influenzae, read-out: MIC) [µg/mL] | MIC ([4]; Staphylococcus aureus, read-out: MIC) [µg/mL] | MIC ([5]; Streptococcus pneumoniae, read-out: MIC) [µg/mL] | Structure (SMILES) |
| --- | --- | --- | --- | --- | --- | --- | --- | --- | --- | --- |
| >16 | 0.12 (≈ 0.141 µM) | 4 (≈ 4.71 µM) | 0.25 (≈ 0.294 µM) | 0.03 µg/mL (≈ 0.0353 µM) |  |  |  |  |  | CC[C@H]1OC(=O)[C@H](C)C(=O)[C@H](C)[C@@H](O[C@@H]2O[C@H](C)C[C@H](N(C)C)[C@H]2O)[C@](C)(OC(=O)NC/C=C/c2ccc(-c3nccc(C)n3)cc2)C[C@@H](C)C(=O)[C@H](C)[C@H]2NC(=O)O[C@@]21C [Compound 68] |
| >16 | 0.12 (≈ 0.146 µM) | 8 (≈ 9.71 µM) | 0.5 (≈ 0.607 µM) | 0.03 µg/mL (≈ 0.0364 µM) |  |  |  |  |  | CC[C@H]1OC(=O)[C@H](C)C(=O)[C@H](C)[C@@H](O[C@@H]2O[C@H](C)C[C@H](N(C)C)[C@H]2O)[C@](C)(OC(=O)NCc2ccc(-c3nccc(C)n3)cc2)C[C@@H](C)C(=O)[C@H](C)[C@H]2NC(=O)O[C@@]21C [Compound 69] |
| 16 (≈ 19 µM) | 0.12 (≈ 0.143 µM) | 4 (≈ 4.76 µM) | 0.25 (≈ 0.298 µM) | 0.03 µg/mL (≈ 0.0357 µM) |  |  |  |  |  | CC[C@H]1OC(=O)[C@H](C)C(=O)[C@H](C)[C@@H](O[C@@H]2O[C@H](C)C[C@H](N(C)C)[C@H]2O)[C@](C)(OC(=O)NCc2ccc(-c3nccc(OC)n3)cc2)C[C@@H](C)C(=O)[C@H](C)[C@H]2NC(=O)O[C@@]21C [Compound 70] |
| >16 | 0.12 (≈ 0.139 µM) | 4 (≈ 4.62 µM) | 0.25 (≈ 0.289 µM) | 0.06 µg/mL (≈ 0.0693 µM) |  |  |  |  |  | CC[C@H]1OC(=O)[C@H](C)C(=O)[C@H](C)[C@@H](O[C@@H]2O[C@H](C)C[C@H](N(C)C)[C@H]2O)[C@](C)(OC(=O)NC/C=C/c2ccc(-c3nccc(OC)n3)cc2)C[C@@H](C)C(=O)[C@H](C)[C@H]2NC(=O)O[C@@]21C [Compound 71] |
|  |  |  |  |  | 16 (≈ 19.1 µM) | 0.12 (≈ 0.144 µM) | 4 (≈ 4.78 µM) | 0.12 (≈ 0.144 µM) | 0.03 (≈ 0.0359 µM) | CC[C@H]1OC(=O)[C@H](C)C(=O)[C@H](C)[C@@H](O[C@@H]2O[C@H](C)C[C@H](N(C)C)[C@H]2O)[C@](C)(OC(=O)NC/C=C/c2ccc(-c3cnccn3)cc2)C[C@@H](C)C(=O)[C@H](C)[C@H]2NC(=O)O[C@@]21C [Compound 77, Carbamic acid, [(2E)-3-(4-pyrazinylphenyl)-2-propenyl]-, (3aS,4R,7R,9R,10R,11R,13R,15R,15aR)-4-ethyltetradecahydro-3a,7,9,11,13,15-hexamethyl-2,6,8,14-tetraoxo-10-[[3,4,6-trideoxy-3-(dimethylamino)-β-D-xylo-hexopyranosyl]oxy]-2H-oxacyclotetradecino[4,3-d]oxazol-11-yl ester] |
| >16 | 0.06 (≈ 0.0718 µM) | 4 (≈ 4.78 µM) | 0.25 (≈ 0.299 µM) | 0.03 µg/mL (≈ 0.0359 µM) |  |  |  |  |  | CC[C@H]1OC(=O)[C@H](C)C(=O)[C@H](C)[C@@H](O[C@@H]2O[C@H](C)C[C@H](N(C)C)[C@H]2O)[C@](C)(OC(=O)NC/C=C/c2ccc(-c3ccncn3)cc2)C[C@@H](C)C(=O)[C@H](C)[C@H]2NC(=O)O[C@@]21C [Compound 78] |
